Target: human D3R (Homo sapiens, UniProt P35462)
Assay: [3H]-spiperone filtration binding assay on membranes from CHO–hDRD3 cells
Conditions: for inhibition at 10 µM: read-out: Inhibition Rate at 10 µM
Description: CHO-K1 cells expressing human D3R (CHO–hDRD3; HD Euroscreen Fast, Brussels, Belgium) were homogenized in 4× v/w buffer (15 mM Tris, 2 mM MgCl2, 0.3 mM EDTA, 1 mM EGTA, pH = 7.4 at 25 °C) with a Dounce tissue grinder and centrifuged at 40,000× g at 4 °C for 25 min. The supernatant was removed, and the pellet was resuspended in 4× v/w buffer and recentrifuged. […] The preparations were then aliquoted and stored at −70 °C [11].
The aliquoted membranes were thawed and washed once in binding buffer (50 mM Tris HCl, 5 mM MgCl2, 5 mM KCl, 1 mM CaCl2, 120 mM NaCl, and 1mM EDTA). […] The incubations were carried out for 120 min at 25 °C in 250 µL in individual wells of a 96-well deep-well plate. […] Non-specific binding was determined in the presence of 10 mM haloperidol. After incubation, the samples were filtered over UniFilter GF/B^TM using PerkinElmer Harvester and washed with 4 × 1 mL ice-cold binding buffer. The plate was dried at 40 °C for 1 h and 40 µL MicroScint scintillation cocktail (PerkinElmer) was added to each well. […] Specific radioligand binding was defined as the difference between total binding and non-specific binding determined in the presence of excess haloperidol. Inhibition percentage (%) = (total binding counts − test compounds binding counts)/(total binding counts—non-specific binding counts) [11].

Chain of human D3R (P35462 whole entry): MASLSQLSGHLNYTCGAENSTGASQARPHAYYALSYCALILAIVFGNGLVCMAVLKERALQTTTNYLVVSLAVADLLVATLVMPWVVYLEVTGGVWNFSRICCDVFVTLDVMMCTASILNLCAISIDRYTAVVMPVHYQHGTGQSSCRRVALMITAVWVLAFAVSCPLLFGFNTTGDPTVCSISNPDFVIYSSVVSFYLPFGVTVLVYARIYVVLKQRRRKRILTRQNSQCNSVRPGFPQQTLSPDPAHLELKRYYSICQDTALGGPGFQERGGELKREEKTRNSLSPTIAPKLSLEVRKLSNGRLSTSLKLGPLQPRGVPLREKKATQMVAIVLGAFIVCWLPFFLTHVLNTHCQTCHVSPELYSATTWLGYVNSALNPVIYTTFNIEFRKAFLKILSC

Row | SMILES | IC50 | inhibition at 10 µM | Inhibition Rate at 10 µM (10 µM test compound, displacement of [3H]-spiperone)
1 | Cc1nc(Nc2ccc(NC(=O)Nc3ccc4c(c3)OCCO4)cc2)cc(NC2CCCCC2)n1 [Compound D638-0102] | 1480 nM | 93.6% | 
2 | Cc1ccc(CNC(=O)c2ccc3c(=O)n(-c4ccc(C)cc4)c(N4CCCC4)nc3c2)cc1 [Compound F072-0905] | 1410 nM | 99.5% | 
3 | Cc1cc(N2CCC(C(=O)N[C@@H]3CCCc4ccccc43)CC2)n2nc(-c3ccccc3)cc2n1 [Compound L227-1012] | 1490 nM | 94.8% | 
4 | Cc1oc(-c2ccc(C(=O)NCc3ccccc3)cc2)nc1CN1CCc2ccccc21 [Compound G373-0280] |  |  | 74.8%

More lines, in order of falling IC50, values ahead:

Row | IC50 | inhibition at 10 µM | Inhibition Rate at 10 µM (10 µM test compound, displacement of [3H]-spiperone) | SMILES
5 | 1250 nM | 99.3% |  | Cc1ccc(-c2c3c(=O)n(C)c(=O)n(C)c3c3n2C(C)(C)CO[C@H]3c2ccc(C)cc2O)cc1 [Compound D280-0447]
6 | 970 nM | 96.9% |  | Cc1ccc(SCc2nc(-c3ccc(C(=O)Nc4ccc5c(c4)OCO5)cc3)oc2C)cc1 [Compound E776-0059]
